# Source: patent US11458163B2, “Platinum(IV) conjugates and methods of use” (priority 2019, dated 2022)
# Entries after “also recorded” stand apart in the source; their conditions may differ.
# Columns and labels:
# [1] = cited from earlier work
# [2] = tested on: AT84 murine head and neck squamous cell carcinoma cell line; assay: Anti-proliferation study, AT84 cells (Resazurin Blue); type: cell-based, mouse; conditions: 72 hours, n=7-8
# Procedure: AT84 cells were derived from a spontaneous squamous cell carcinoma in the oral mucosa of a C3H mouse (19,20) and were gifted by Aldo Venuti (Regina Elena National Cancer Institute, Rome, Italy). Cells tested negative for interspecies contamination (Idexx BioResearch, CellCheck STR profiling). Cells tested negative for rodent pathogens (Idexx BioResearch, IMPACT I PCR profile). Cells tested negative for Mycoplasm contamination (Lonza, Basel, Switzerland, MycoAlert test kit). Cells were cultured in RPMI-1640 media (Gibco, Thermo Fisher Scientific, Waltham, Mass.) supplemented with 10% FBS (Corning Corning, N.Y.), and 100 U/mL penicillin/100 μg/mL streptomycin (HyClone, Thermo Fisher Scientific, Waltham, Mass.) in a humidified incubator at 37° C. and 5% CO2.
# AT84 cells were maintained in RPMI-1640 media (Gibco) with 10% fetal bovine serum (Corning), and 100 U/mL penicillin/100 μg/mL streptomycin (HyClone) in a humidified incubator at 37° C. and 5% CO2. Cells were seeded into 96-well plates (3,000 cells/well in 90 ul media) and allowed to attach overnight. […] Fluorescence (λex 550 nm, λem 605 nm) was quantified with a SpectraMax Gemini XS plate-reader (Molecular Devices, Sunnyvale, Calif.). […] Data from at least five separate experiments was analyzed using non-linear regression (GraphPad Prism 5.0) to generate […].
# calreticulin (CRT) = assay: Calreticulin translocation in AT84 cells transfected with mouse CRT-HaloTag-KDEL fusion protein; type: cell-based; conditions: 500 μM, 12-15 hours (overnight)
# Text: Plasmid: The full cDNA sequence of the insert was published by Golden et al. (21) and codes for a mouse calreticulin-HaloTag®-KDEL fusion protein. The cDNA sequence includes Mus musculus calreticulin (Accession BC003453, Version BC003453.1, CDS 37-1286), the HaloTag® vector (Accession HM157289, Version HM157289.1, CDS 197-1081), and a KDEL sequence. This cDNA sequence was inserted into a mammalian expression vector, pD643-Rc, by DNA2.0 (now ATUM, Newark, Calif.). The vector includes a CayenneRFP reporter protein (Ex:554 nm/Em:590 nm) used to visualize positively transfected cells.
# AT84 cells were plated in 6-well culture plates and allowed to grow to ˜90% confluence. Cells were transfected with a plasmid containing a mouse calreticulin-HaloTag®-KDEL fusion protein and a CayenneRFP reporter protein using lipofectamine (Invitrogen, Carlsbad, Calif.). Five microliters of lipofectamine was added to 150 μl Opti-MEM (Gibco, Thermo Fisher Scientific, Waltham, Mass.). Ten micrograms of plasmid DNA was added to 150 μl Opti-MEM. Both solutions were incubated at room temperature for 5 minutes. DNA solution was added to lipofectamine solution and incubated for 20 minutes at room temperature. During incubation, media on the cells were replaced with serum-free media (2 mL). 250 μl of DNA:lipofectamine solution was added dropwise to each well, which contained 2 mL of serum-free media. […]
# calf thymus DNAs = conditions: cited from earlier work
# AT84 allografts = assay: Immunocompetent tumor model: orthotopic AT84 allografts in C3H mice; type: in vivo
# Procedure: Wildtype C3H mice (Charles River Strain 025, 6-8 weeks old, 20-25 g) were used for in vivo tumor studies. Both male and female mice were used in the studies. […] Mice were anesthetized using 5% isoflurane in O2 for 5 minutes. One million AT84 cells in 50 μl PBS were injected subcutaneous (s.c.) into the floor of the mouth via an extra-oral route of C3H mice to obtain orthotopic allograft tumors (19,20). […] Under isoflurane anesthesia, Pt(IV)-toco/HA-toco composition (3 mg/kg on Pt(IV)-toco basis) or vehicle (50 μl hyaluronan-tocopherol, 16.7 mg/mL) was injected intratumoral on days 4, 11, and 18 after the tumor cell injection. Tumor size was calculated: tumor volume (mm^3)=0.52×(width)^2×length, where length is the longer of two perpendicular dimensions.
# [3] = tested on: naturally occurring cancers; assay: Open-label compassionate-care clinical trial of intralesional therapy in pet dogs; type: in vivo, dog; conditions: proposed dose level
# Procedure: An open-label, compassionate-care clinical trial was conducted in pet dogs with various types of cancer to evaluate the feasibility of intralesional delivery of Pt(IV)-toco/HA-toco composition as chemotherapy. The most common types of cancer include squamous cell carcinoma, soft tissue sarcoma, and oral melanoma. Typical exclusion criteria such as small breeds, large tumor burden, short life expectancy, metastatic disease, and certain pre-existing conditions (e.g., Cushing's disease) were not implemented in this study.
# The reported study was conducted in 18 veterinary hospitals in the Kansas City area. Most pets received either Pt(IV)-toco/HA-toco or HylaPlat treatment at 3-week intervals for up to 10 treatments, ranging from 1 to 17.5 mg/m^2 on cisplatin basis. Clinical chemistry and hematology were obtained before and after each treatment to evaluate the tolerability of the therapy. A physical exam including measurements of tumor(s) was performed approximately every 3-weeks to monitor the response status of the subjects.
# [4] = Ongoing tolerability studies in rabbits; type: in vivo; conditions: proposed dose level
# MDA-1986 xenografts = assay: Immunodeficient tumor model: orthotopic MDA-1986 xenografts in nude mice; type: in vivo
# Procedure: Nude mice (Charles River Ath/nu, 6-8 weeks old, 20-25 g) were used for in vivo tumor studies. Both male and female mice were used in the studies. […] Mice were anesthetized using 5% isoflurane in O2 for 5 minutes. One million MDA-1986 cells in 50 μl PBS were injected subcutaneous into the left cheek of nude mice to obtain orthotopic xenograft tumors (13,15). Treatment began when tumors reached 75 mm^3. Under isoflurane anesthesia, Pt(IV)-toco/HA-toco composition (3 mg/kg on Pt(IV)-toco basis) or vehicle (1.5 MDa hyaluronan, 16.7 mg/mL) was injected intratumoral on days 14, 21, and 28 after the tumor cell injection. Tumor size was calculated using the same equation as stated in the C3H model.
# [5] = last pair of measurements vs control, 3 mg/kg intratumoral once per week for 3 weeks
molecule,measurement,setting,value
N.N.O=C([O-])C1(C(=O)[O-])CCC1.[Pt+2] [carboplatin],safety in cats,[1],may be safe
"N.N.[Cl][Pt][Cl] [cisplatin, Cis-Dichlorodiamine platinum (II)]",IC50,[2],3000 ± 260 nM
same,CRT translocation to the cell surface (indicator of ICD),calreticulin (CRT),does not cause CRT translocation to the membrane; also recorded: does not show CRT translocation
same,safety in cats,[1],"hydrothorax, pulmonary and mediastinal edema"
"O=C1[O][Pt]2([NH][C@@H]3CCCC[C@H]3[NH]2)[O]C1=O [oxaliplatin, Oxaliplatin]",CRT translocation to the cell surface (indicator of ICD),calreticulin (CRT),membrane translocation of CRT is observed; also recorded: show CRT translocation
same,formation of Pt-DNA adducts relative to cisplatin,calf thymus DNAs,approximately one tenth
Pt(IV)-Su-Gly-Toco [Pt(IV)-toco],"tumor volume, mean±SEM, last pair of measurements","AT84 allografts; 3 mg/kg on Pt(IV)-toco basis intratumoral, days 4, 11, 18",1024±129 mm^3
same,survival rate,AT84 allografts; by the time all control mice have succumbed,100%
same,tumor inhibition,AT84 allografts; [5],49%
same,"dose-limiting toxicities (renal dysfunction, ototoxicity, peripheral neuropathy)",[3],did not cause any dose-limiting toxicities
same,"dose-limiting toxicities (renal dysfunction, ototoxicity, peripheral neuropathy)",[4],did not cause any dose-limiting toxicities
same,"tumor volume, mean SEM, last pair of measurements","MDA-1986 xenografts; 3 mg/kg on Pt(IV)-toco basis intratumoral, days 14, 21, 28",812±150 mm^3
same,tumor inhibition,MDA-1986 xenografts; [5],43%
